# From patent US20160220630A1, “AGONISTS OF GUANYLATE CYCLASE USEFUL FOR THE TREATMENT OF OPIOID INDUCED DYSFUNCTIONS” (priority 2013, published 2016)
# “Also recorded” adds a separate entry of the source. Positions of bridges follow the written chain, without caps; N, C: chain ends. Non-standard residues stand in square brackets, D forms with d. Residues, ends and D or L forms follow the SMILES beside them.
# Assays:
# [1] = test system: rat jejunum; experiment: Short circuit current (Isc) in Ussing chamber across rat jejunum tissue; conditions: for inhibition of SP-333-stimulated Isc: inhibitor pretreatment 5 min, 1 μM SP-333
# [2] = test system: T84 cells; experiment: Short circuit current (Isc) in Ussing chamber across T84 cells monolayer
# [3] = test system: female Sprague-Dawley rats; experiment: Opioid-induced GI transit delay after single IP opioid dose (charcoal meal); assay type: in vivo, rat
# Description: Animals: All study procedures were conducted under a study outline approved by the Institutional Animal Care and Use Committee of MB Research Labs (Spinnerstown, Pa.) or Lampire Biological Laboratories (Pipersville, Pa.). Seven to eight week old female Sprague-Dawley rats [Crl:CD(SD)], weighing between ˜180-210 grams, were obtained from Charles River Laboratories and allowed to acclimate for a week. Animals were maintained on a 12 hour light-dark cycle. For intestinal tissue collection and evaluation of GI transit, rats were fasted for at least 18 hours before the experiment, with free access to water.
# (§1) Effect of SP-333 on opioid-induced GI transit delay in rats: The ability of opioids to delay GI transit in rats was tested by either administering 0 (vehicle) 0.25, 1 and 2.5 mg/kg of morphine or 0 (vehicle), 0.25, 2.5 and 5 mg/kg of methadone (1.5 ml/kg dose volume) by IP injection. Water served as vehicle control. Ten minutes later, a 2 mL charcoal meal consisting of 10% activated charcoal (Sigma-Aldrich, St. Louis, Mo.) and 10% gum Arabic (Sigma-Aldrich, St. Louis, Mo.) in water was administered via oral gavage. Rats were euthanized 10 min after the charcoal meal via IP injection of 150 mg/kg Beuthanasia-D solution (sodium pentobarbital, 390 mg/mL). The small intestine was removed and the total length from the pyloric sphincter to the ileocecal junction was recorded, as well as the distance travelled by the leading edge of the charcoal. Intestinal transit was determined by calculating the ratio (expressed as a percentage) of the distance between the pyloric sphincter and the leading edge of the charcoal to the distance between the pyloric sphincter and the ileocecal junction.
# [4] = test system: female Sprague-Dawley CD rats; experiment: GI transit delay induced by repeated methadone administration; assay type: in vivo, rat; conditions: for GI transit after repeated methadone dosing (words): repeated daily IP methadone (5 then 2.5 mg/kg)
# Description: The ability of SP-333 to alleviate GI transit delay induced by repeated methadone administration was also evaluated in the similar manner. Female Sprague-Dawley CD rats 7 to 8 weeks of age (n=7/group) received via IP injection 16 doses of methadone (once daily; 7 doses @ 5 mg/kg and 9 doses @ 2.5 mg/kg). Ten minutes following each methadone dose, each group received an oral gavage of vehicle, 2.5, and 5 mg/kg of SP-333. At the end of the dosing regimen, animals were fasted overnight and GI transit was evaluated as described above.
# [5] = test system: female Sprague-Dawley CD rats; experiment: Methadone-induced constipation (fecal pellet output); assay type: in vivo, rat
# Description: Effect of SP-333 on methadone-induced constipation in rats: To identify the methadone dose that induces constipation in rats, female Sprague-Dawley CD rats 7 to 8 weeks of age (n=6/group) were administered 0 (vehicle), 2.5, 5, and 7.5 mg/kg of methadone (1.5 ml/kg dose volume) by IP injection once a day for 5 days. Fecal pellets were collected at 4 h intervals during the light cycle and average number of pellets was recorded for each group during the course of the study following daily dose administrations of methadone.
# To evaluate the ability of SP-333 to relieve methadone-induced constipation, female Sprague-Dawley CD rats 7 to 8 weeks of age (n=7/group) were administered 5 mg/kg of methadone (or vehicle) each day for 7 days via IP injection to induce constipation. Ten minutes following the IP dose each day, an oral gavage of 2.5, and 5 mg/kg of SP-333 or vehicle (buffer) was administered. Fecal pellets were collected at 4 h intervals during the light cycle and average number of pellets recorded for each group during the course of the study following daily administration of vehicle, methadone or combination of methadone and SP-333.
# [6] = test system: female Sprague-Dawley rats; experiment: Reversal of methadone-induced delayed GI transit by oral SP-333; assay type: in vivo, rat
# Description: as §1
# To evaluate the ability of SP-333 to reverse methadone induced delayed GI transit, animals were administered 2.5 mg/kg of methadone by IP injection. Ten minutes later, an oral gavage of 0 (vehicle), 0.1, 0.5, 2.5, 5 and 50 mg/kg of SP-333 (1.5 ml/kg dose volume) was administered followed immediately by a 2 mL oral gavage of the charcoal meal. Ten minutes after the charcoal meal, animals were euthanized and intestinal transit was calculated as described above.
# [7] = test system: female Sprague-Dawley rats; experiment: Reversal of morphine-induced delayed GI transit by oral SP-333; assay type: in vivo, rat
# Description: as §1
# To evaluate the ability of SP-333 to reverse morphine induced delayed GI transit, animals were administered 2.5 mg/kg of morphine by IP injection followed immediately by oral gavage of 0 (vehicle), 0.5, 2.5, 5 and 50 mg/kg of SP-333 (1.5 ml/kg dose volume). Water served as vehicle control. Charcoal meal was administered ten minutes later and animals were euthanized ten minutes after the charcoal meal and intestinal transit was calculated as described above.
# [8] = test system: female Sprague-Dawley rats; experiment: GI transit (charcoal meal) after single oral SP-333 in opioid naïve rats; assay type: in vivo, rat
# Description: FIGS. 7A-B is a series of graphs showing that oral treatment with SP-333 increases GI transit in rats. […] Panel A is a bar graph showing that SP-333 increases GI transit by 5.6%, 13%, and 23% at 0.05, 0.5, and 5 mg/kg, respectively in opioid naïve animals. Panel B is a distribution graph showing the data of each individual animal.
# as §1
# [9] = 5 μM methadone apical 5 min, then 1 μM SP-333
# [10] = 5 μM morphine apical 5 min, then 1 μM SP-333
compound,measurement,setting,value
O=C(O)c1ccc(/C=C2\SC(=S)N(c3cccc(C(F)(F)F)c3)C2=O)cc1 [CFTRinh172],inhibition of SP-333-stimulated Isc,[1],less compared to that detected in T84 cells
same,suppression in SP-333-stimulated Isc,"[2]; 10 μM CFTRinh172, compared with 1 μM SP-333 alone",80%
CCC(=O)C(CC(C)N(C)C)(c1ccccc1)c1ccccc1 (stereo not shown) [methadone],methadone dose sufficient to significantly reduce GI transit,[3]; IP,2.5 mg/kg
same,GI transit delay vs corresponding vehicle controls,[3]; methadone 2.5 mg/kg IP,49%
same,effect of methadone on GI transit,"[3]; methadone 0.25, 2.5 and 5 mg/kg IP",significantly reduced GI transit; also recorded: statistically significant reduction in GI transit
same,GI transit after repeated methadone dosing (words),[4],significant delay in GI transit
same,GI transit after repeated methadone dosing (words),[4]; listed as Methadone,significant reduction in GI transit
same,effect of methadone on fecal output,"[5]; daily IP methadone 2.5, 5 and 7.5 mg/kg",drastically reduced daily fecal output; also recorded: statistically significant reduction in fecal output
same,effect of methadone pre-treatment on SP-333-stimulated Isc,[1]; [9],no effect; also recorded: not adversely affected
same,effect of methadone pre-treatment on SP-333-stimulated Isc,[2]; [9],no effect; also recorded: not adversely affected
[Cl][Cd][Cl] [CdCl2],inhibition of SP-333-stimulated Isc,[1],minimal effect
same,decrease in SP-333-stimulated Isc,"[2]; CdCl2 300 μM or mPKI 3.2 μM, 1 μM SP-333",No appreciable decrease; also recorded: minimal effect
"CC(C)C[C@@H]1NC(=O)[C@H](CCC(=O)O)NC(=O)[C@@H](NC(=O)[C@H](CCC(=O)O)NC(=O)[C@H](CC(=O)O)NC(=O)[C@H](N)CC(N)=O)CSSC[C@@H]2NC(=O)[C@H](C)NC(=O)[C@H](C(C)C)NC(=O)[C@H](CC(N)=O)NC(=O)[C@H](C(C)C)NC(=O)[C@H](CSSC[C@@H](C(=O)N[C@H](CC(C)C)C(=O)O)NC(=O)CNC(=O)[C@H]([C@@H](C)O)NC2=O)NC1=O [SP-333, dAsn^1-Asp^2-Glu^3-Cys^4-Glu^5-Leu^6-Cys^7-Val^8-Asn^9-Val^10-Ala^11-Cys^12-Thr^13-Gly^14-Cys^15-dLeu^16] (H-[dN]DECELCVNVACTGC[dL]-OH; disulfide 4-12, 7-15)",GI transit in methadone-treated rats,[6]; methadone 2.5 mg/kg IP + SP-333 0.5 mg/kg oral,40%
same,GI transit in methadone-treated rats,[6]; methadone 2.5 mg/kg IP + SP-333 2.5 mg/kg oral,39%
same,GI transit in methadone-treated rats,[6]; methadone 2.5 mg/kg IP + SP-333 5 mg/kg oral,44%
same,GI transit in methadone-treated rats,[6]; methadone 2.5 mg/kg IP + SP-333 50 mg/kg oral,52%
same,SP-333 dose sufficient to relieve the effect of methadone on GI transit,"[6]; methadone 2.5 mg/kg IP, SP-333 oral",5 mg/kg
same,delay in GI transit caused by methadone,[6]; orally administered SP-333,completely restored the delay in GI transit
same,GI transit delay after repeated methadone dosing,[4]; repeated daily IP methadone (5 then 2.5 mg/kg) + SP-333 2.5 and 5 mg/kg oral,normalized GI transit; also recorded: relieved the GI-transit delay; also recorded: statistically significant improvement in GI transit delay
same,GI transit in morphine-treated rats,[7]; morphine 2.5 mg/kg IP + SP-333 0.5 mg/kg oral,27%
same,GI transit in morphine-treated rats,[7]; morphine 2.5 mg/kg IP + SP-333 2.5 mg/kg oral,37%
same,GI transit in morphine-treated rats,[7]; morphine 2.5 mg/kg IP + SP-333 5 mg/kg oral,46%
same,GI transit in morphine-treated rats,[7]; morphine 2.5 mg/kg IP + SP-333 50 mg/kg oral,48%
same,SP-333 dose sufficient to relieve the effect of morphine on GI transit,"[7]; morphine 2.5 mg/kg IP, SP-333 oral",5 mg/kg
same,delay in GI transit caused by morphine,[7]; orally administered SP-333,completely restored the delay in GI transit
same,increase in GI (small intestinal) transit compared to vehicle controls,[8]; SP-333 0.05 mg/kg single oral gavage,5.6%
same,increase in GI (small intestinal) transit compared to vehicle controls,[8]; SP-333 0.5 mg/kg single oral gavage,13%
same,increase in GI (small intestinal) transit compared to vehicle controls,[8]; SP-333 5 mg/kg single oral gavage,23%
same,fecal pellet count compared to the methadone dosed group without SP-333,"[5]; methadone 5 mg/kg IP + SP-333 2.5 mg/kg oral, once daily 7 days",threefold increase; also recorded: significantly relieved methadone-induced constipation
same,fecal output / average number of pellets,"[5]; methadone 5 mg/kg IP + SP-333 2.5 and 5 mg/kg oral, once daily 7 days",partially restored fecal output; also recorded: higher compared to the methadone dosed group
same,increase in Isc (chloride currents),[1]; SP-333 0.01-10 μM apical,concentration-dependent increase in Isc approaching saturation at 10 μM
same,increase in Isc (chloride currents),[2]; SP-333 0.01-10 μM apical,concentration-dependent increase in Isc approaching saturation at 10 μM
CN1CC[C@]23c4c5ccc(O)c4O[C@H]2[C@@H](O)C=C[C@H]3[C@H]1C5 [morphine],"GI transit slowed by, compared to vehicle controls",[3]; morphine 2.5 mg/kg IP single dose,56%
same,effect of morphine on GI transit,"[3]; morphine IP 0.25, 1.0 and 2.5 mg/kg",significantly reduced GI transit
same,effect of morphine pre-treatment on SP-333-stimulated Isc,[1]; [10],negligible effect; also recorded: not adversely affected
same,effect of morphine pre-treatment on SP-333-stimulated Isc,[2]; [10],negligible effect; also recorded: not adversely affected
COC(=O)[C@@]1(OC)C[C@H]2O[C@]1(C)n1c3ccccc3c3c4c(c5c6ccccc6n2c5c31)C(=O)N(C)C4 [PKG-II inhibitor],suppression of relative SP-333-stimulated Isc,"[2]; PKG-II inhibitor 4 μM, 1 μM SP-333",approximately 35%
